Results as given in patent US20080003215A1, “Use of pre-dissolved pristinamycin-type and polyether ionophore type antimicrobial agents in the production of ethanol” (priority 2006, published 2008).

Test system: L. plantarum
Test: Development of resistance test (10 week duration)
Type: cell-based
Details: 10 week duration of the test
Text: One very effective control program involves the introduction of pristinamycin-type antimicrobial agents, and particularly virginiamycin, to the process. […] Usually, the “waste” byproduct, known as “Dried Distillers Grains with Solubles (DDGS), is sold as animal feed, going 45% to dairy, 35% to beef, 15% to swine, and 5% to poultry industries. This is an important factor in the profitability of an ethanol production process, and the total amount of this byproduct produced per year is on the order of 3.5 million metric tons per year. The presence of residual antimicrobial agents in this material can adversely affect the value of this byproduct, as small residual amounts of antimicrobial agents in feed will promote the development of agent-resistant microorganisms. We have tested DDGS samples from 8 major ethanol producers using virginiamycin to control microorganisms and found no detectable amount of virginiamycin in the DDGS (<1 ppm via the validated Eurofins analysis and <1 ppb via an unvalidated experimental analytical procedure). […] Generally, however, the virginiamycin in mash is destroyed by drying so virginiamycin must be re-added to the feed if so desired. Other effective control agents include polyether ionophore-type antimicrobial agents, which provide many of the benefits obtained with pristinamycin-type antimicrobial agents. […]

Substance: virginiamycin
- Time until L. plantarum developed resistance: no development of resistance
